Data set [1] deals with HIV-1ROJO. As to the kind of experiment: Anti-HIV PBMC assay (reverse transcriptase activity in supernatant). The conditions noted are these: for TI (therapeutic index, TC50/IC50): HIV-1ROJO in PBMCs; for IC50: read-out: IC50 (μM) (50% inhibition of virus replication), HIV-1ROJO in fresh human PBMCs, 7 days.
For data set [2], the target named is HSP90 (bis-ANS treated). As to the kind of experiment: Biotin-geldanamycin competition binding, bis-ANS treated HSP90.
Data set [3] is described as follows: MTS assay to measure cytotoxicity of PBMC. Format: cell-based, human. The conditions noted are these: human, PBMC, PBMCs without virus, read-out: TC50 (μM) (50% cytotoxicity). How it is done: PBMC's in 96 well plates that were treated with compounds (without virus) were assayed for cell viability and compound toxicity using an MTS assay (CellTiter 96 Aqueous Non-Radioactivity Cell Proliferation Assay, Promega, Madison; Wis.).

A short description of data set [4]: Water solubility studies (salts dissolved in water at room temperature). Format: physicochemical. The conditions noted are these: thermodynamic from solid, HCl salt, read-out: Solubility of the HCl salt in H2O. Here is the method: Various salts were prepared as described in the example section and dissolved in water at room temperature.
The test system of data set [5] is Her-2. The experiment in a line: HER2 inhibition assay (Her-2 degradation in MCF7 cells, flow cytometry). Format: cell-based. The conditions noted are these: read-out: HER-2 degradation (IC50 nM). Here is the method: MCF7 cells are seeded in 24 well plates at a density of approximately 30,000 cells/well and allowed to grow for 16 hours in DMEM supplemented with 10% FBS. Drug is then added at a concentration range of 100 uM to 0.01 uM. Cells are incubated for an additional 24. […] 10,000 events were collected per sample. A fluorescence histogram was generated and the mean fluorescence intensity (mfi) of each sample was determined using Cellquest software. The background was defined as the mfi generated from cells incubated with control IgG, and was subtracted from each sample stained with the HER-2/neu Ab. Percent degradation of Her-2 was calculated as follows: % Her-2 degradation=(mfi HER-2 sample)/(mfi HER-2 untreated cells)×100 Water Solubility Studies
Background: A flow cytometer gives signals particle by particle.

Data set [6] concerns HSP90 (cell lysate, high affinity). As to the kind of experiment: Biotin-geldanamycin competition binding, HSP90 in cell lysate (high affinity). The conditions noted are these: for ratio: rHsp90 (low affinity) IC50 over lysate (high affinity) IC50; for IC50: read-out: Lysate (high affinity) IC50 nM, inhibition of biotin-GM binding to HSP90 in cell lysate, 4° C.
Data set [7] concerns the target rHsp90 (low affinity). The experiment in a line: Biotin-geldanamycin competition binding, purified native HSP90 protein (rHsp90, low affinity). The conditions noted are these: read-out: rHsp90 (low affinity) IC50 nM; inhibition of biotin-GM binding to purified HSP90, 4° C.
The test system of data set [8] is SKOV-3 ovarian xenograft. The experiment in a line: SKOV-3 ovarian xenograft model. Format: in vivo. The conditions noted are these: tumors 200 mm3 before commencement of treatment. From the text:
Compounds have also been tested in HER-2 over-expressing tumor models such as BT474 breast and SKOV-3 ovarian carcinoma A therapy experiment with SKOV-3 is shown in FIG. 6. The treatment, doses, and schedule were the same as used in the A549 and MDA435 experiments. In this case, the tumors were allowed to become established and grow to a relatively large size (200 mm3) before commencement of treatment.

A word on the melting point: it is the temperature, or range, at which the solid turns liquid. `CCOP(=O)(NCCCCNC1=C2CC(C)CC(OC)C(O)C(C)/C=C(\C)C(OC(N)=O)C(OC)/C=C\C=C(/C)C(=O)NC(=CC1=O)C2=O)OCC` (stereo not shown) came in with a melting point of 94.8 to 96.2 °C.
Same read-out and setting: with `COC1/C=C\C=C(/C)C(=O)NC2=CC(=O)C(NC(=O)NCc3ccc(F)cc3)=C(CC(C)CC(OC)C(O)C(C)/C=C(\C)C1OC(N)=O)C2=O` (stereo not shown) the figure was 175 to 177 °C.
On the same count and under the same terms, under `COC1/C=C\C=C(/C)C(=O)NC2=CC(=O)C(NC(=O)c3snnc3C)=C(CC(C)CC(OC)C(O)C(C)/C=C(\C)C1OC(N)=O)C2=O` (stereo not shown) stands 157 to 159 °C; under `COC1/C=C\C=C(/C)C(=O)NC2=CC(=O)C(NC(=O)c3c(C)noc3C)=C(CC(C)CC(OC)C(O)C(C)/C=C(\C)C1OC(N)=O)C2=O` (stereo not shown), 190 to 192 °C; under `COC1/C=C\C=C(/C)C(=O)NC2=CC(=O)C(NC(=O)c3cc(C)nn3C)=C(CC(C)CC(OC)C(O)C(C)/C=C(\C)C1OC(N)=O)C2=O` (stereo not shown), 193 to 195 °C.
Broadly, the IC50 is the point on the concentration scale where inhibition reaches its midpoint. With `C=CCO/N=C1/[C@@H](OC)C[C@H](C)CC2=C(NC(=O)c3ccccc3)C(=O)C=C(NC(=O)/C(C)=C/C=C\[C@H](OC)[C@@H](OC(N)=O)/C(C)=C/[C@@H]1C)C2=O` (stereo in doubt) [Compound #1011], the “TI (therapeutic index, TC50/IC50)” value in [1] was 14.5. Also, the IC50 in data set [1] turned out to be 0.2 µM; in [2] it was 5 µM. Besides, in data set [3], the CC50 is 2.9 µM.
In the case of `CO/N=C1/[C@@H](OC)C[C@H](C)CC2=C(NC(=O)c3ccccc3)C(=O)C=C(NC(=O)/C(C)=C/C=C\[C@H](OC)[C@@H](OC(N)=O)/C(C)=C/[C@@H]1C)C2=O` (stereo in doubt) [Compound #1012], in data set [2], the IC50 stood at 6 µM.
On the same count and under the same terms, with `CCO/N=C1/[C@@H](OC)C[C@H](C)CC2=C(NC(=O)c3ccccc3)C(=O)C=C(NC(=O)/C(C)=C/C=C\[C@H](OC)[C@@H](OC(N)=O)/C(C)=C/[C@@H]1C)C2=O` (stereo in doubt) [Compound #1013] the figure was 5.2 µM.
For orientation: solubility means how much of the substance goes into solution per volume. With `C=CCNC1=C2C[C@@H](C)C[C@H](OC)[C@H](O)[C@@H](C)/C=C(\C)[C@H](OC(N)=O)[C@@H](OC)/C=C\C=C(/C)C(=O)NC(=CC1=O)C2=O` [Compound 17-AAG, 17-allyl amino geldanamycin, reference compound], the IC50 in data set [1] worked out at 0.38 µM; in [5], 5 nM. The solubility in data set [4] is less than 10 µg/mL. In addition, the CC50 in data set [3] was 2.02 µM.
`COC1/C=C\C=C(/C)C(=O)NC2=CC(=O)C(c3ccccc3)=C(CC(C)CC(OC)C(O)C(C)/C=C(\C)C1OC(N)=O)C2=O` (stereo not shown) [Compound #133, 17-phenyl-geldanamycin]: the solubility in data set [4] is less than 10 µg/mL. In addition, the IC50 in data set [5] is 25 nM.
`COC1C=CC=C(C)C(=O)NC2=CC(=O)C(NCCCN3CCN(CCCNC4=C5CC(C)CC(OC)C(O)C(C)C=C(C)C(OC(N)=O)C(OC)C=CC=C(C)C(=O)NC(=CC4=O)C5=O)CC3)=C(CC(C)CC(OC)C(O)C(C)C=C(C)C1OC(N)=O)C2=O` (stereo not shown) [Compound #207] showed a melting point of 162 °C. For the same compound, in [4], the solubility is not below 13000 µg/mL. In addition, the IC50 in data set [5] turned out to be 12 nM.
Take `COC1C=CC=C(C)C(=O)NC2=CC(=O)C(NCCCN(C)CCCNC3=C4CC(C)CC(OC)C(O)C(C)C=C(C)C(OC(N)=O)C(OC)C=CC=C(C)C(=O)NC(=CC3=O)C4=O)=C(CC(C)CC(OC)C(O)C(C)C=C(C)C1OC(N)=O)C2=O` (stereo not shown) [Compound #208]: the melting point was 153 °C (dec.). In addition, in data set [1], the “TI (therapeutic index, TC50/IC50)” value was 38.6 and the IC50 worked out at 0.007 µM. The solubility in [4] is not below 20000 µg/mL. In addition, the IC50 in [5] amounted to 11 nM. Also, the CC50 in data set [3] turned out to be 0.27 µM.
`COc1ccccc1C1=C2CC(C)CC(OC)C(O)C(C)/C=C(\C)C(OC(N)=O)C(OC)/C=C\C=C(/C)C(=O)NC(=CC1=O)C2=O` (stereo not shown) [Compound #212, 17-(2-methoxy-phenyl)-geldanamycin]: the solubility in data set [4] is less than 10 µg/mL. Moreover, the IC50 in data set [5] was 10 nM.
The corresponding values for `COC1/C=C\C=C(/C)C(=O)NC2=CC(=O)C(c3cccs3)=C(CC(C)CC(OC)C(O)C(C)/C=C(\C)C1OC(N)=O)C2=O` (stereo not shown) [Compound #232, 17-(2-thiophen)-geldanamycin] are less than 10 µg/mL and 80 nM.
For the compound `COC1/C=C\C=C(/C)C(=O)NC2=CC(=O)C(NC(=O)c3ccccn3)=C(CC(C)CC(OC)C(O)C(C)/C=C(\C)C1OC(N)=O)C2=O` (stereo not shown) [Compound #529, 17-picolinoyl-aminogeldanamycin], the melting point lay in the range of 195 to 197 °C. Besides, in [6], the ratio was 67 and the IC50 stood at 15 nM. Also, the IC50 in data set [7] was determined as 1000 nM.
Consider `COC1/C=C\C=C(/C)C(=O)NC2=CC(=O)C(NC(=O)c3ccncc3)=C(CC(C)CC(OC)C(O)C(C)/C=C(\C)C1OC(N)=O)C2=O` (stereo not shown) [Compound #530, 17-isonicotinoyl-aminogeldanamycin], for which the melting point was 167 to 169 °C. The solubility in data set [4] is more than 2000 µg/mL. The IC50 in [5] is 100 nM.
`COC1/C=C\C=C(/C)C(=O)NC2=CC(=O)C(NC(=O)c3cc(C)nn3C(C)(C)C)=C(CC(C)CC(OC)C(O)C(C)/C=C(\C)C1OC(N)=O)C2=O` (stereo not shown) [Compound #561, 17-(1-t-butyl-3-methyl-1H-pyrazole-5-carbonyl-amino)-geldanamycin]: the melting point fell in the range of 216 to 218 °C.
With `COC1/C=C\C=C(/C)C(=O)NC2=CC(=O)C(NC(=O)c3ccccc3)=C(CC(C)CC(OC)C(O)C(C)/C=C(\C)C1OC(N)=O)C2=O` (stereo not shown) [Compound #563, 17-(benzoyl)-aminogeldanamycin], the melting point is 218 to 220 °C. In [6], the ratio is 90 and the IC50 was determined as 50 nM. Besides, in data set [7], the IC50 turned out to be 4500 nM. In [8], the “tumor growth in SKOV-3 xenograft” value is on record as “suppressed tumor growth almost completely”.
As for `CO[C@H]1/C=C\C=C(/C)C(=O)NC2=CC(=O)C(NC(=O)c3ccc(CN(C)C)cc3)=C(C[C@@H](C)C[C@H](OC)[C@H](O)[C@@H](C)/C=C(\C)[C@@H]1OC(N)=O)C2=O` [Compound #687, 17-(4-dimethylaminomethyl-benzoyl)-aminogeldanamycin], the melting point was 203 to 206 °C. For the same compound, in [6], the ratio is on record as 250 and the IC50 came to 8 nM. In data set [7], the IC50 came out at 2000 nM.
For the compound `CO[C@H]1/C=C\C=C(/C)C(=O)NC2=CC(=O)C(NC(=O)OCc3ccc(OC(C)=O)cc3)=C(C[C@@H](C)C[C@H](OC)[C@H](O)[C@@H](C)/C=C(\C)[C@@H]1OC(N)=O)C2=O` [Compound #709], in [6], the ratio was 167 and the IC50 was found to be 9 nM. In addition, in data set [7], the IC50 turned out to be 1500 nM.
With `CO[C@H]1/C=C\C=C(/C)C(=O)NC2=CC(=O)C(NC(=O)OCC(C)C)=C(C[C@@H](C)C[C@H](OC)[C@H](O)[C@@H](C)/C=C(\C)[C@@H]1OC(N)=O)C2=O` [Compound #749], in data set [1], the “TI (therapeutic index, TC50/IC50)” value was found to be 56.0 and the IC50 is 0.02 µM. Further, in data set [3], the CC50 was found to be 1.12 µM.
In the case of `CO[C@H]1/C=C\C=C(/C)C(=O)NC2=CC(=O)C(NC(=O)c3ccccc3)=C(C[C@@H](C)C[C@H](OC)[C@@H](OC(=O)CBr)[C@@H](C)/C=C(\C)[C@@H]1OC(N)=O)C2=O` [Compound #981], in data set [2], the IC50 was 5.5 µM.
Still for that read-out and setting: under `CO[C@H]1/C=C\C=C(/C)C(=O)NC2=CC(=O)C(NC(=O)c3ccccc3)=C(C[C@@H](C)C[C@H](OC)[C@@H](OC(=O)/C=C/c3cccs3)[C@@H](C)/C=C(\C)[C@@H]1OC(N)=O)C2=O` [Compound #982] stands 5.5 µM.
In the case of `CO[C@H]1/C=C\C=C(/C)C(=O)NC2=CC(=O)C(NC(=O)c3ccccc3)=C(C[C@@H](C)C[C@H](OC)[C@@H](OC(=O)Cc3ccccc3)[C@@H](C)/C=C(\C)[C@@H]1OC(N)=O)C2=O` [Compound #983], the 50% inhibitory concentration (IC50) in [2] is 7 µM.
Regarding `CO[C@H]1/C=C\C=C(/C)C(=O)NC2=CC(=O)C(NC(=O)c3ccccc3)=C(C[C@@H](C)C[C@H](OC)[C@@H](OC(=O)Cc3cccs3)[C@@H](C)/C=C(\C)[C@@H]1OC(N)=O)C2=O` [Compound #984], the IC50 in data set [2] was determined as 4.2 µM.
In turn, `CCCCCC(=O)O[C@@H]1[C@@H](OC)C[C@H](C)CC2=C(NC(=O)c3ccccc3)C(=O)C=C(NC(=O)/C(C)=C/C=C\[C@H](OC)[C@@H](OC(N)=O)/C(C)=C/[C@@H]1C)C2=O` [Compound #985] yielded a concentration for half-maximal inhibition (IC50) in data set [2] of 12 µM.

These data come from US7465718B2, “Ansamycins having improved pharmacological and biological properties” (Conforma Therapeutics Corporation, priority 2002, dated 2008).
